Assay results published in paper PMC9095416 (Medicinal Chemistry Research, 2022).

How the values were obtained:
SARS-CoV-2 M^pro [1] = biological target: T1, SARS-CoV-2 M^pro (Severe acute respiratory syndrome coronavirus 2, UniProt P0DTD1); assay: FRET-based enzymatic assay, SARS-CoV-2 M^pro; assay type: biochemical; conditions: FRET assay M^pro IC50, 4 mM DTT
SARS-CoV-2 M^pro [2] = biological target: T1, SARS-CoV-2 M^pro; assay: cell-based
SARS-CoV-2 PL^pro = SARS-CoV-2 PL^pro (Severe acute respiratory syndrome coronavirus 2, UniProt P0DTD1); assay: FRET-based enzymatic assay, SARS-CoV-2 PL^pro; assay type: biochemical

**Q.** For `Oc1cc(O)cc(Oc2c(O)cc(O)c3c2Oc2c(O)cc(Oc4c(O)cc(Oc5c(O)cc(O)c6c5Oc5c(O)cc(O)cc5O6)cc4O)cc2O3)c1` [Dieckol, dieckol], which IC50 (SARS-CoV-2 M^pro [1]) is on record?
**A.** Its IC50 is greater than 20 µM.

**Q.** What about the IC50 (SARS-CoV-2 M^pro [2]) of the same molecule?
**A.** Its IC50 is greater than 60 µM.

**Q.** What about the IC50 (SARS-CoV-2 PL^pro) of the same molecule?
**A.** The IC50 was greater than 20 µM.
